Measured values reported in ChEMBL document CHEMBL1221360, “Synthesis and structure-activity relationships of sinenxan A derivatives as multidrug resistance reversal agents” (Bioorg Med Chem Lett, 2010).
Active and inactive are the calls of the source. The rule behind the calls is not given here.

Columns and labels:
[1] = tested on: KB; assay: Cytotoxicity against human KB cells; format: functional, cell-based
[2] = tested on: KB/V; assay: Reversal of human P-glycoprotein-mediated multidrug resistance in human KB/V cells as reduction of vincristine IC50 at 10 uM; format: cell-based
[3] = tested on: KB/V; assay: Partial reversal of human P-glycoprotein-mediated multidrug resistance in human KB/V cells as reduction of vincristine IC50 at 10 uM; format: cell-based
[4] = tested on: KB/V; assay: Ratio of compound reversal of P-glycoprotein-mediated multidrug resistance to verapamil reversal of P-glycoprotein-mediated multidrug resistance in human KB/V cells; format: cell-based

Row | SMILES | Activity [1] | Activity [2] | Activity [3] | Ratio [4]
1 | C=C1[C@@H](OC(=O)CCCCc2ccccc2)CC[C@@]2(C)C[C@H](OC(C)=O)C3=C(C)C(=O)C[C@@H]([C@@H](OC(C)=O)[C@H]12)C3(C)C | inactive | inactive |  | 
2 | C=C1[C@@H](OC(=O)c2ccco2)CC[C@@]2(C)C[C@H](OC(C)=O)C3=C(C)C(=O)C[C@@H]([C@@H](OC(C)=O)[C@H]12)C3(C)C | inactive |  | Active | 
3 | C=C1[C@@H](OC(=O)CCc2cccs2)CC[C@@]2(C)C[C@H](OC(C)=O)C3=C(C)C(=O)C[C@@H]([C@@H](OC(C)=O)[C@H]12)C3(C)C | inactive | inactive |  | 
4 | C=C1[C@@H](OC(=O)Cc2ccccc2)CC[C@@]2(C)C[C@H](OC(C)=O)C3=C(C)CC[C@@H]([C@@H](OC(C)=O)[C@H]12)C3(C)C | inactive | inactive |  | 
5 | C=C1[C@@H](OC(=O)c2cccnc2)CC[C@@]2(C)C[C@H](OC(C)=O)C3=C(C)CC[C@@H]([C@@H](OC(C)=O)[C@H]12)C3(C)C | inactive |  | Active | 
6 | C=C1[C@@H](OC(=O)CCC2CCCCC2)CC[C@@]2(C)C[C@H](OC(C)=O)C3=C(C)C(=O)C[C@@H]([C@@H](OC(C)=O)[C@H]12)C3(C)C | inactive |  | Active | 
7 | C=C1[C@@H](OC(=O)Cc2cccc3ccccc23)CC[C@@]2(C)C[C@H](OC(C)=O)C3=C(C)C(=O)C[C@@H]([C@@H](OC(C)=O)[C@H]12)C3(C)C | inactive | inactive |  | 
8 | C=C1[C@@H](OC(=O)CCc2ccccc2)CC[C@@]2(C)C[C@H](OC(C)=O)C3=C(C)CC[C@@H]([C@@H](OC(C)=O)[C@H]12)C3(C)C | inactive | inactive |  | 
9 | C=C1[C@@H](OC(=O)Cc2cc(OC)ccc2OC)CC[C@@]2(C)C[C@H](OC(C)=O)C3=C(C)CC[C@@H]([C@@H](OC(C)=O)[C@H]12)C3(C)C | inactive | inactive |  | 
10 | C=C1[C@@H](OC(=O)CCCc2ccccc2)CC[C@@]2(C)C[C@H](OC(C)=O)C3=C(C)CC[C@@H]([C@@H](OC(C)=O)[C@H]12)C3(C)C | inactive | inactive |  | 
11 | C=C1[C@@H](OC(=O)c2ccco2)CC[C@@]2(C)C[C@H](OC(C)=O)C3=C(C)CC[C@@H]([C@@H](OC(C)=O)[C@H]12)C3(C)C | inactive | inactive |  | 
12 | C=C1[C@@H](OC(=O)CCC2CCCCC2)CC[C@@]2(C)C[C@H](OC(C)=O)C3=C(C)CC[C@@H]([C@@H](OC(C)=O)[C@H]12)C3(C)C | inactive | inactive |  | 
13 | C=C1[C@@H](OC(=O)COc2ccc3ccccc3c2)CC[C@@]2(C)C[C@H](OC(C)=O)C3=C(C)C(=O)C[C@@H]([C@@H](OC(C)=O)[C@H]12)C3(C)C | inactive | inactive |  | 
14 | C=C1[C@@H](OC(=O)/C=C/c2ccccc2)CC[C@@]2(C)C[C@H](OC(C)=O)C3=C(C)CC[C@@H]([C@@H](OC(C)=O)[C@H]12)C3(C)C | inactive | inactive |  | 
15 | C=C1[C@@H](OC(=O)CCc2cccnc2)CC[C@@]2(C)C[C@H](OC(C)=O)C3=C(C)C(=O)C[C@@H]([C@@H](OC(C)=O)[C@H]12)C3(C)C | inactive | Active |  | 1.42
16 | C=C1[C@@H](OC(=O)CCC(=O)O)CC[C@@]2(C)C[C@H](OC(C)=O)C3=C(C)CC[C@@H]([C@@H](OC(C)=O)[C@H]12)C3(C)C | inactive | inactive |  | 
17 | COc1ccc(CCN(C)CCCC(C#N)(c2ccc(OC)c(OC)c2)C(C)C)cc1OC (stereo not drawn) | inactive | inactive |  | 
18 | C=C1[C@@H](OC(=O)Cc2cccs2)CC[C@@]2(C)C[C@H](OC(C)=O)C3=C(C)C(=O)C[C@@H]([C@@H](OC(C)=O)[C@H]12)C3(C)C | inactive | inactive |  | 
19 | C=C1[C@@H](OC(=O)/C=C\c2ccco2)CC[C@@]2(C)C[C@H](OC(C)=O)C3=C(C)C(=O)C[C@@H]([C@@H](OC(C)=O)[C@H]12)C3(C)C | inactive | Active |  | 1.67
20 | C=C1[C@@H](OC(=O)[C@@H]2CCCN2)CC[C@@]2(C)C[C@H](OC(C)=O)C3=C(C)C(=O)CC([C@@H](OC(C)=O)[C@H]12)C3(C)C (single isomer, unassigned) | inactive | Active |  | 21.2
21 | C=C1[C@@H](OC(=O)COc2ccc3ccccc3c2)CC[C@@]2(C)C[C@H](OC(C)=O)C3=C(C)CC[C@@H]([C@@H](OC(C)=O)[C@H]12)C3(C)C | inactive |  | Active | 
22 | C=C1[C@@H](OC(=O)CC2CCCCC2)CC[C@@]2(C)C[C@H](OC(C)=O)C3=C(C)C(=O)C[C@@H]([C@@H](OC(C)=O)[C@H]12)C3(C)C | inactive | Active |  | 6.6
23 | C=C1[C@@H](OC(=O)c2cccnc2)CC[C@@]2(C)C[C@H](OC(C)=O)C3=C(C)C(=O)C[C@@H]([C@@H](OC(C)=O)[C@H]12)C3(C)C | inactive |  | Active | 
24 | C=C1[C@@H](OC(=O)CCCc2cccs2)CC[C@@]2(C)C[C@H](OC(C)=O)C3=C(C)C(=O)C[C@@H]([C@@H](OC(C)=O)[C@H]12)C3(C)C | inactive |  | Active | 
25 | C=C1[C@@H](OC(=O)/C=C\c2ccco2)CC[C@@]2(C)C[C@H](OC(C)=O)C3=C(C)CC[C@@H]([C@@H](OC(C)=O)[C@H]12)C3(C)C | inactive | inactive |  | 
26 | C=C1[C@@H](OC(=O)CCCCc2ccccc2)CC[C@@]2(C)C[C@H](OC(C)=O)C3=C(C)CC[C@@H]([C@@H](OC(C)=O)[C@H]12)C3(C)C | inactive |  | Active | 
27 | C=C1[C@@H](OC(=O)Cc2cccs2)CC[C@@]2(C)C[C@H](OC(C)=O)C3=C(C)CC[C@@H]([C@@H](OC(C)=O)[C@H]12)C3(C)C | inactive | inactive |  | 
